PubChem BioAssay AID493145 (Sanford-Burnham Center for Chemical Genomics, 2011)
Where “and” joins values, the source holds several entries; their conditions need not be identical. Identical values can stand only once. Calls of active or inactive are those of the source. No rule for the calls is given here.

What follows are compounds tested against Intestinal-type alkaline phosphatase (Homo sapiens) (UniProt P09923) (assay: human IAP activators, SAR follow-up, mouse IAP activator project, biochemical, human enzyme for mouse series (AID 493145)). Details: purified human intestinal alkaline phosphatase, enzymatic activity.
Sequence of Intestinal-type alkaline phosphatase (Homo sapiens) (P09923 whole entry, looked up): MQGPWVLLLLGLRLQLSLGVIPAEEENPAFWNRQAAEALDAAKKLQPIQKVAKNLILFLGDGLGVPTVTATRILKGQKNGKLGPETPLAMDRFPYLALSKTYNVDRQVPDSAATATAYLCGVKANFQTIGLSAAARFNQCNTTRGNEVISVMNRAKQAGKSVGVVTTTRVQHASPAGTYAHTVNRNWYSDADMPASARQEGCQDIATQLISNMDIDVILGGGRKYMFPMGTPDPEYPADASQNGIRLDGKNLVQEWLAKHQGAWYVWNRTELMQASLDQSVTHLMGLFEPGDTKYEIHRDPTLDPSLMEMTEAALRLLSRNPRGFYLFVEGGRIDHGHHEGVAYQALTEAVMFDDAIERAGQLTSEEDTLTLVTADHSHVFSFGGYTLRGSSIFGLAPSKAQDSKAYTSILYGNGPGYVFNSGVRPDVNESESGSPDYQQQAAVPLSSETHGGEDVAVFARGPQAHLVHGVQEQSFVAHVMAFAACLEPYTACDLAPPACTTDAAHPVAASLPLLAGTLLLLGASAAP

| Compound | EC50 |
| --- | --- |
| O=C(N/N=C/C1CC2CCC1C2)c1cc(O)c(O)c(O)c1 (stereo not drawn) | > 100 µM (inactive) |
| O=C(NCCc1ccc(Cl)cc1)C1CCCN(S(=O)(=O)c2ccc3[nH]c(=O)oc3c2)C1 (stereo not drawn) | > 100 µM (inactive) |
| CCN(CC)C(=O)CSc1sc2c(O)cc(=O)[nH]c2c1C#N | > 100 µM (inactive) |
| O=C(NN=Cc1cccnc1)c1cc(O)c(O)c(O)c1 | > 100 µM (inactive) |
| COc1cc(C(=O)NN=Cc2ccccn2)cc(OC)c1OC | 30.8 µM |
| N#Cc1c(SCC(=O)Nc2ccc(Cl)cc2Cl)sc2c(O)cc(=O)[nH]c12 | > 100 µM (inactive) |
| N#Cc1c(SCC(=O)Nc2nc3ccc(Br)cc3s2)sc2c(O)cc(=O)[nH]c12 | > 100 µM (inactive) |
| CN1CCC(=NNC(=O)c2cc(O)c(O)c(O)c2)CC1 | > 100 µM (inactive) and 64 µM |
| COc1cccc(/C=N/NC(=O)c2cc(O)c(O)c(O)c2)c1 | > 100 µM (inactive) |
| COc1cc(C(=O)NNC(=S)NC(=O)c2ccccc2C)cc(OC)c1OC | 21.4 µM |
| N#Cc1c(SCC(=O)Nc2nncs2)sc2c(O)cc(=O)[nH]c12 | > 100 µM (inactive) |
| O=C(N/N=C/c1ccc(F)cc1)c1cc(O)c(O)c(O)c1 | > 100 µM (inactive) |
| COc1cc([N+](=O)[O-])ccc1NC(=S)NCCC(c1ccccc1)c1ccccc1 | > 100 µM (inactive) |
| COc1cc(C(=O)NNC(=O)c2n[nH]c3ccccc23)cc(OC)c1OC | 24 µM |
| Cc1csc(NC(=O)CSc2sc3c(O)cc(=O)[nH]c3c2C#N)n1 | > 100 µM (inactive) |
| CC(C)NC(=O)CSc1sc2c(O)cc(=O)[nH]c2c1C#N | > 100 µM (inactive) |

Other lines, results leading:

| EC50 | Compound |
| --- | --- |
| > 100 µM (inactive) | O=C(CN1C(=O)/C(=C/c2ccco2)SC1=S)Nc1ccc(C(=O)O)c(O)c1 |
| > 100 µM (inactive) | CSc1cccc(NC(=O)CCNS(=O)(=O)c2ccc3[nH]c(=O)oc3c2)c1 |
| > 100 µM (inactive) | O=C(CCN1C(=O)/C(=C/c2ccco2)SC1=S)Nc1ccc(O)cc1C(=O)O |
| > 100 µM (inactive) | O=C(CCNS(=O)(=O)c1ccc2[nH]c(=O)oc2c1)Nc1ccccc1 |
| > 100 µM (inactive) | COc1ccccc1NC(=O)CCNS(=O)(=O)c1ccc2[nH]c(=O)oc2c1 |
| > 100 µM (inactive) | O=C(CN1C(=O)/C(=C\c2ccco2)SC1=S)Nc1ccccc1C(=O)O |
| > 100 µM (inactive) | NS(=O)(=O)c1ccc(-c2ccc(/C=C3\SC(=S)N(C4CCS(=O)(=O)C4)C3=O)o2)cc1 (stereo not drawn) |
| > 100 µM (inactive) | O=C(CN1C(=O)/C(=C\c2ccco2)SC1=S)Nc1cccc(C(=O)O)c1 |
| > 100 µM (inactive) | N#Cc1c(SCC(=O)Nc2ccccc2C(F)(F)F)sc2c(O)cc(=O)[nH]c12 |
| 82.9 µM | CCN(C(=O)C(C)N1C(=O)/C(=C/c2ccco2)SC1=S)C1CCS(=O)(=O)C1 (stereo not drawn) |
| > 100 µM (inactive) | CCc1ccc(NC(=O)CN(C)S(=O)(=O)c2ccc3[nH]c(=O)oc3c2)cc1 |
| > 100 µM (inactive) | CCOc1cccc(NC(=O)CSc2sc3c(O)cc(=O)[nH]c3c2C#N)c1 |
| > 100 µM (inactive) | O=C(N/N=C/c1ccco1)c1cc(O)c(O)c(O)c1 |
| 30.6 µM | O=C(CN1C(=O)/C(=C/c2ccco2)SC1=S)NC1CCS(=O)(=O)C1 (stereo not drawn) |
| 52.6 µM | O=C(CN1C(=O)/C(=C/c2ccco2)SC1=S)NC1C=CS(=O)(=O)C1 (stereo not drawn) |
| > 100 µM (inactive) | CC(C(=O)Nc1ccc(C(=O)O)cc1)N1C(=O)/C(=C\c2ccco2)SC1=S (stereo not drawn) |
| > 100 µM (inactive) | O=C(CCN1C(=O)/C(=C\c2ccco2)SC1=S)Nc1ccc(C(=O)O)c(O)c1 |
| > 100 µM (inactive) | N#Cc1c(SCC(=O)Nc2cccc(F)c2)sc2c(O)cc(=O)[nH]c12 |
| > 100 µM (inactive) | CC(C(=O)Nc1ccc(C(=O)O)c(O)c1)N1C(=O)/C(=C\c2ccco2)SC1=S (stereo not drawn) |
| > 100 µM (inactive) | O=C(CCCN1C(=O)/C(=C/c2ccco2)SC1=S)Nc1ccccc1 |
| > 100 µM (inactive) | O=C(CN1C(=O)/C(=C/c2ccco2)SC1=S)Nc1cccc(C(=O)O)c1 |
| > 100 µM (inactive) | Cc1ccc(/C=C2\SC(=S)N(C3CCS(=O)(=O)C3)C2=O)o1 (stereo not drawn) |
